Measurements published in PubChem BioAssay (NCI).
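48-hour exposure; five concentrations; linearly interpolated endpoints. Here, GI50 denotes the concentration required for 50% inhibition of growth. TGI is the concentration that stops growth completely.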

What was measured:
Experiment in all cases: NCI-60 cell line screen, 48 h
[1] = system: 786-0 renal
[2] = system: ACHN renal
[3] = system: HCT-15 colon
[4] = system: HOP-62 NSCLC
[5] = system: K-562 leukemia
[6] = system: KM12 colon
[7] = system: RXF 393 renal
[8] = system: SF-295 CNS
[9] = system: SR leukemia
[10] = system: UACC-62 melanoma
[11] = system: MCF7 breast
[12] = system: MDA-MB-435
[13] = system: NCI/ADR-RES ovarian
[14] = system: T-47D breast
[15] = system: MDA-MB-231 breast

Row | SMILES | TGI [1] [µM] | TGI [2] [µM] | TGI [3] [µM] | TGI [4] [µM] | TGI [5] [µM] | TGI [6] [µM] | TGI [7] [µM] | TGI [8] [µM] | TGI [9] [µM] | TGI [10] [µM] | TGI [11] [µM] | TGI [12] [µM] | TGI [13] [µM] | TGI [14] [µM] | TGI [15] [µM] | GI50 [2] [µM] | GI50 [5] [µM] | GI50 [11] [µM] | GI50 [13] [µM] | GI50 [9] [µM]
1 | COc1ccc(-c2nc3c(nc2-c2ccc(OC)cc2)N(C)S(=O)(=O)N=C3N)cc1 | 50.1 | 80 | > 100 | > 100 | > 100 | 92.2 | 44.1 | 84.3 | 35.3 | 94.3 |  |  |  |  |  |  |  |  |  | 
2 | Cc1c(-c2ccc(O)c(O)c2)oc(=O)c2c(O)cccc12 | 23.4 | > 100 | 17.7 | 34.5 | 28.1 | 24.2 | 36 | 42.2 |  |  | 34.4 | 12.3 | 29.7 | 15.4 |  |  |  |  |  | 
3 | NC(=O)C1N=NSC1NC(=O)c1ccc([N+](=O)[O-])cc1 (stereo not given) | > 100 | > 100 | > 100 | > 100 | > 100 | > 100 | > 100 | > 100 |  | > 100 | > 100 | > 100 | > 100 | > 100 | > 100 |  |  |  |  | 
4 | O=S(=O)(O)c1ccccc1N=Nc1ccc(N=Nc2c(O)ccc3ccccc23)c(S(=O)(=O)O)c1 | > 100 | > 100 | > 100 | > 100 | > 100 | > 100 | > 100 | > 100 |  | > 100 |  | > 100 | > 100 | > 100 | > 100 |  |  |  |  | 
5 | CCc1c(C)c2ccc(OCC(=O)N=Nc3c(O)[nH]c4ccccc34)c(C)c2oc1=O |  | > 33.3 |  |  | > 33.3 |  |  |  | > 33.3 | > 33.3 | > 33.3 |  | > 33.3 |  |  | > 33.3 | 1.19 | 0.992 | > 33.3 | 1.2
6 | CCCCc1c2c(nc3c1CC/C(=C\c1ccc([N+](=O)[O-])cc1)C3=O)CCCC2 | 2.77 | 3.28 | 1.16 | 3.29 | 6.88 | 3.52 | 2.63 | 4.07 | 35.5 | 3 |  |  |  |  |  |  |  |  |  | 
7 | COc1cc(C(=O)OCCn2[nH]c(-c3ccc(Cl)cc3)nc2=S)cc(OC)c1OC | > 100 | > 100 | > 100 | > 100 | > 100 | > 100 | > 100 | > 100 | > 100 | > 100 | > 100 | > 100 | > 100 |  | > 100 |  |  |  |  | 
8 | CCOC(=O)c1cn2c(ccc3sc4ccccc4c(=O)c32)n1 | > 100 | > 100 | > 100 | > 100 | > 100 | > 100 | > 100 | > 100 | > 100 |  | > 100 | > 100 | > 100 |  | > 100 |  |  |  |  | 
9 | NC(=O)SCC(=O)Nc1ccc2ncccc2c1 | 67.6 | > 100 | > 100 | > 100 | > 100 | > 100 |  | > 100 | > 100 | > 100 | > 100 | > 100 | > 100 |  | > 100 |  |  |  |  | 
10 | Cc1[nH]c(=O)nc(N(CCO)/N=C/c2ccc(Cl)cc2)c1C(=O)Nc1ccc(Cl)cc1 | > 100 | > 100 | > 100 | > 100 | > 100 | > 100 | 76.3 | > 100 |  | > 100 | > 100 | > 100 | > 100 | > 100 | > 100 |  |  |  |  | 
11 | CC(=O)N(C(C)=O)n1nc2c(n1)C(=O)c1ccccc1C2=O | > 100 | > 100 | > 100 | > 100 |  | > 100 | > 100 | > 100 |  | > 100 | > 100 | > 100 | > 100 | > 100 | > 100 |  |  |  |  | 
12 | S=C(c1c[nH]c2ccccc12)N1CCCCC1 | > 100 | > 100 | > 100 | > 100 | > 100 | > 100 | > 100 | > 100 | > 100 | > 100 | > 100 | > 100 | > 100 |  | > 100 |  |  |  |  | 
13 | Cc1ccc(S(=O)(=O)N2CCCSCCN(S(=O)(=O)c3ccc(C)cc3)CCCSCC2)cc1 | > 100 | > 100 |  | > 100 | > 100 | > 100 | > 100 | > 100 |  | > 100 | > 100 | > 100 | > 100 | > 100 | > 100 |  |  |  |  | 
14 | O=C1CCCC2=C1CC1=C(CCCC1=O)N2c1cccc([N+](=O)[O-])c1 | > 100 | > 100 | > 100 |  | > 100 | > 100 | > 100 |  | > 100 | > 100 | > 100 |  | > 100 |  |  |  |  |  |  | 
15 | COC1=CC(=O)NCCN1 | > 100 | > 100 | > 100 | > 100 | > 100 | > 100 | > 100 | > 100 | > 100 | > 100 |  |  |  |  |  |  |  |  |  | 
16 | CN=C(NC)N(C)c1nc(=[N+](C)C)ss1 | > 100 | > 100 | > 100 | > 100 | > 100 | > 100 | > 100 | > 100 | > 100 | > 100 |  |  |  |  |  |  |  |  |  | 
17 | CC(=O)OC1[C@H](n2ccnc2)C[C@H]2[C@@H]3CC=C4CC(N5CCCC5)CC[C@]4(C)[C@H]3CC[C@]12C (stereo not given in full) | > 100 | > 100 | > 100 |  | > 100 | > 100 | 43.7 | 41 | 35.2 | 82.3 | > 100 | > 100 | > 100 |  | > 100 |  |  |  |  | 
18 | NC(C(=O)OC(=O)c1ccccc1)C(=O)OC(=O)c1ccccc1 | > 100 | > 100 | > 100 | > 100 | > 100 | > 100 | > 100 | > 100 |  |  | > 100 | > 100 | > 100 | > 100 | > 100 |  |  |  |  | 
